Experimental data from patent US9315546B2, “Growth hormone secretatogue receptor antagonists and uses thereof” (The Administrators of the Tulane Educational Fund, priority 2010, dated 2016).
pIC50, pKi: −log10 of the molar value. Values joined by “and” are separate entries in the source; they are usually repeats but may differ in a detail not shown here. Identical values can stand only once. Where a SMILES comes first, the peptide text is derived from it. Where no end group is shown, it is not given here. [ ]: non-standard residue; d: D form. d2Nal = N[C@H](Cc1ccc2ccccc2c1)C(=O)O; Aib = CC(C)(N)C(=O)O

Assays:
[1] = molecular target: T1, hypothalamic ghrelin receptor (Rattus norvegicus, UniProt O08725); assay: Spontaneous and ghrelin-stimulated GH secretion after icv ghrelin analogs in adult male rats; assay type: in vivo; parameters: from tissue; host or cells: whole animal (adult male rats); details: ghrelin analog 10 μg icv, 6-h sampling
T1 sequence (O08725 whole entry): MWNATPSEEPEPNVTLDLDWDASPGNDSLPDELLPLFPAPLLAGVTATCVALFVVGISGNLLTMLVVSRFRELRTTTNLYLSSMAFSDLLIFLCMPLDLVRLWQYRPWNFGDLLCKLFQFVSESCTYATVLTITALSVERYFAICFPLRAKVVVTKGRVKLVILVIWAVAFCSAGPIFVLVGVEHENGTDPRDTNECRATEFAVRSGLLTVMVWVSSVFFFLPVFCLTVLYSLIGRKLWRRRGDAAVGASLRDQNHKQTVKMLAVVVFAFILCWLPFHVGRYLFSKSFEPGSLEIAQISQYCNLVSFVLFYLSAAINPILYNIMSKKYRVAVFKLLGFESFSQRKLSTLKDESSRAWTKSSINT
Procedure: (§1) In vivo effects were measured on spontaneous and ghrelin-stimulated GH secrtion over a 6-h sampling period, and food intake monitored hourly over a 5-h period and body weight change over 24 h.

[2] = molecular target: T1, hypothalamic ghrelin receptor; assay: Food intake and body weight change after icv ghrelin analogs in adult male rats; assay type: in vivo; parameters: from tissue; host or cells: whole animal (adult male rats); details: ghrelin analog 10 μg icv, monitored hourly over 5 h
Procedure: as §1

[3] = molecular target: T2, Ghrelin/GHRP/GHS Receptor (Rattus norvegicus, UniProt O08725); assay: In vivo GH release in rat after i.v. peptide (serum GH by RIA)
T2 sequence (O08725 whole entry): as above
Procedure: For the in vivo assay of GH Release in rat, immature female Sprague Dawley rats were obtained from Charles River from Wilmington, Mass. After arrival they were housed at 25° C. with a 14:10 h light:dark cycle. Water and Purina rat chow were available at libitum. Pups were weaned at 21 days of age.
Immature twenty six day old female Sprague Dawley rats, 3-6 rats per treatment dose, were pretreated with pentobarbital 20 minutes before iv injection of vehicle/peptide or peptide plus stimulator. Injection was made as a 0.1 ml solution. For the non-pentobarbital treated rat assay, peptides were administered iv into the tail vein of conscious rats. All animals were sacrificed by guillotine after iv peptide or vehicle. Trunk blood was collected at +10-15 minutes […], allowed to clot, centrifuged and serum stored until assayed for GH levels by RIA. The GH RIA reagents were distributed by the NIH. Control data was collected from rats treated with only the corresponding vehicle in the absence of peptide or stimulator. Control stimulated data was collected from rats treated with stimulator alone in the absence of any peptide.

[4] = molecular target: T2, Ghrelin/GHRP/GHS Receptor; assay: GH release from cell culture of pituitary cells; assay type: cell-based; parameters: After dispersion, the cells were collected by centrifugation, wash with DMEM and placed into culture well; endogenous in cells; host or cells: dispersed primary rat pituitary cells, 4 days in culture
Procedure: In vitro GH Release-Female rats of the CD-1 strain were housed in a constant temperature room at 24° C. with 14 h light and 10 h darkness. The rats were fed Purina Rat chow and water at libitum. All studies were started between 0800-1000 hours. Pituitaries of mature female Sprague Dawley rats were rapidly removed after decapitation, neurointermediate lobe discarded and then placed in a pH 7.4 buffer. The pituitaries were cut into ˜3-mm pieces and then transferred to a flask containing HEPS buffer with trypsin and incubated at 37° C. Cells were triturated several times during this period. After dispersion, the cells were collected by centrifugation, wash with DMEM and placed into culture well. Cell cultures were maintained for 4 days at 37° with 8% CO2 added to the incubator atmosphere. After 4 days in culture, cells were washed with lactated Ringer's solution adjusted to pH 7.2-7.4 and then vehicle, peptide alone or peptide plus stimulator was added to media. Incubation time was 60-120 minutes after which media was removed from each well for GH determination. The GH RIA reagents were distributed by the NIH. Control data was collected from cell cultures treated with only the corresponding vehicle in the absence of peptide or stimulator. Control stimulated data was collected from cell cultures treated with stimulator alone in the absence of any peptide.

[5] = molecular target: T3, human ghrelin receptor type 1a (GHS-R1a) (Homo sapiens, UniProt Q92847); assay: Receptor binding, displacement of radiolabelled ghrelin, HEK-293 cell membranes; details: for % INH, Ghrelin/GHS Antagonist Receptor Activity: concentration not given
T3 construct: expressed in transfected cells; host or cells: HEK-293 cells (membranes)
T3 sequence (Q92847 whole entry): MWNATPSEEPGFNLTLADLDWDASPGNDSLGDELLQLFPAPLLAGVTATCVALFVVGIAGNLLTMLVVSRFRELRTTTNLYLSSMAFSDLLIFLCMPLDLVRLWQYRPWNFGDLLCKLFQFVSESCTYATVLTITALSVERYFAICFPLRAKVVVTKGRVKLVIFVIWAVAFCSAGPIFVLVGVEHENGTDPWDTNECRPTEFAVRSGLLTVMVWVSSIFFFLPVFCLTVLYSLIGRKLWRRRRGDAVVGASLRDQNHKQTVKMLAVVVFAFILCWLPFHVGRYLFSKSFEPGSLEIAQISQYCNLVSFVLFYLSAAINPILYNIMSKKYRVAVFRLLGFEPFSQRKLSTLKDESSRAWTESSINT

[6] = Table 3, peptide alone 3 μg i.v.
[7] = Table 3, peptide alone 30 μg i.v.
[8] = Table 3, peptide alone 100 μg i.v.
[9] = Table 5, peptide alone 1 μg i.v.
[10] = Table 5, peptide alone 10 μg i.v.
[11] = Table 3, peptide alone 1 μg i.v.
[12] = Table 3, peptide alone 10 μg i.v.
[13] = Table 5, peptide alone 30 μg i.v.

Gly-Met-Ala-Gly-Ser-(Dap-Palmityl)-Phe-Leu-Ser-Pro-Glu-His-NH2 (GMAGS[Dap(palmityl)]FLSPEH-NH2) [#6]
spontaneous growth hormone secretion / plasma GH levels [1]: did not inhibit
(cumulative) food intake [2]: did not inhibit GH secretion or decreased food intake

[dA][d2Nal]AW[dF]K-NH2 [reference compound]
Stimulated Control GH release (stimulator alone) ([3]; DAla-DβNal-Ala-Trp-DPhe-Lys-NH2 0.3 μg, rat, Table 2): 1412 ± 400 ng/mL and 2253 ± 252 ng/mL
Stimulated Control GH release (stimulator alone) ([3]; DAla-DβNal-Ala-Trp-DPhe-Lys-NH2 1 μg, rat, Table 2): 3214 ± 276 ng/mL and 3105 ± 429 ng/mL and 2406 ± 288 ng/mL and 2825 ± 134 ng/mL and 3104 ± 429 ng/mL
Stimulated Control GH release (stimulator alone) ([3]; Table 4, Non-Pentobarbital Rats, DAla-DβNal-Ala-Trp-DPhe-Lys-NH2 10 μg): 72 ± 9 ng/mL
Stimulated Control GH release (stimulator alone) ([3]; Table 4, Pentobarbital Rats, DAla-DβNal-Ala-Trp-DPhe-Lys-NH2 0.3 μg): 5052 ± 511 ng/mL
Stimulated Control GH release (stimulator alone) ([3]; Table 4, Pentobarbital Rats, DAla-DβNal-Ala-Trp-DPhe-Lys-NH2 1 μg): 4950 ± 98 ng/mL
Stimulated Control GH release (stimulator alone) ([4]; Table 6, DAla-DβNal-Ala-Trp-DPhe-Lys-NH2 10 ng/ml): 2420 ± 0 ng/mL and 2811 ± 229 ng/mL and 2385 ± 8 ng/mL
Stimulated Control GH release (stimulator alone) ([4]; Table 9, DAla-DβNal-Ala-Trp-DPhe-Lys-NH2 1 ng/ml): 1232 ± 34 ng/mL
Stimulated Control GH release (stimulator alone) ([4]; Table 10, DAla-DβNal-Ala-Trp-DPhe-Lys-NH2 1 ng/ml): 905 ± 6 ng/mL and 1153 ± 36 ng/mL and 1216 ± 26 ng/mL and 1461 ± 58 ng/mL and 1016 ± 18 ng/mL and 859 ± 4 ng/mL and 1060 ± 24 ng/mL
Stimulated Control GH release (stimulator alone) ([4]; Table 11, DAla-DβNal-Ala-Trp-DPhe-Lys-NH2 1 ng/ml): 905 ± 6 ng/mL and 947 ± 11 ng/mL and 947 ± 33 ng/mL and 1016 ± 18 ng/mL

[dA][d2Nal]AT[dT]K-NH2 [4-DAla-DβNal-Ala-Thr-DThr-Lys-NH2]
Unstimulated Basal GH release [3, 6]: 255 ± 38 ng/mL
Unstimulated Basal GH release [3, 7]: 288 ± 31 ng/mL
Unstimulated Basal GH release [3, 8]: 386 ± 57 ng/mL

CSCC[C@H](NC(=O)CN)C(=O)N[C@@H](C)C(=O)NCC(=O)N[C@@H](CO)C(=O)N[C@@H](Cc1c[nH]c2ccccc12)C(=O)N[C@@H](Cc1ccccc1)C(=O)N[C@@H](CC(C)C)C(=O)N[C@@H](CO)C(=O)N1CCC[C@H]1C(=O)N[C@@H](CCC(=O)O)C(=O)N[C@@H](Cc1c[nH]cn1)C(=O)N[C@@H](CCC(N)=O)C(=O)N[C@@H](CCCNC(=N)N)C(=O)N[C@H](C(=O)N[C@@H](CCC(N)=O)C(=O)N[C@@H](CCC(N)=O)C(=O)N[C@@H](CCCNC(=N)N)C(=O)N[C@@H](CCCCN)C(=O)N[C@@H](CCC(=O)O)C(=O)N[C@@H](CO)C(=O)N[C@@H](CCCCN)C(=O)N[C@@H](CCCCN)C(=O)N1CCC[C@H]1C(=O)N1CCC[C@H]1C(=O)N[C@@H](C)C(=O)N[C@@H](CCCCN)C(=O)N[C@@H](CC(C)C)C(=O)N[C@@H](CCC(N)=O)C(=O)N1CCC[C@H]1C(=O)N[C@@H](CCCNC(=N)N)C(=O)O)C(C)C [#7]
pIC50 [5]: 6.55
pKi [5]: 6.80
% INH, Ghrelin/GHS Antagonist Receptor Activity [5]: 86%

αγAbu-DTrp-DTrp-Lys-NH2 [2-αγAbu-DTrp-DTrp-Lys-NH2]
Unstimulated Basal GH release [3, 9]: 57 ± 7 ng/mL
Unstimulated Basal GH release ([3]; Table 5, peptide alone 3 μg i.v.): 84 ± 18 ng/mL
Unstimulated Basal GH release [3, 10]: 62 ± 15 ng/mL

Alaψ[CH2NH]-DβNal-Ala-Trp-DPhe-Lys-NH2 [6-Alaψ[CH2NH]-DβNal-Ala-Trp-DPhe-Lys-NH2]
Stimulated GH release ([3]; peptide antagonist 3 μg i.v. + stimulator 1 μg): 2771 ± 157 ng/mL
Stimulated GH release ([3]; peptide antagonist 10 μg i.v. + stimulator 1 μg): 2341 ± 416 ng/mL
Stimulated GH release ([3]; peptide antagonist 30 μg i.v. + stimulator 1 μg): 1948 ± 450 ng/mL
Stimulated GH release ([3]; peptide antagonist 100 μg i.v. + stimulator 1 μg): 1639 ± 221 ng/mL

[d2Nal]AW[dF]A-NH2 [1-DβNal-Ala-Trp-DPhe-Ala-NH2]
Unstimulated Basal GH release [3, 11]: 623 ± 60 ng/mL
Unstimulated Basal GH release [3, 6]: 694 ± 70 ng/mL
Unstimulated Basal GH release [3, 12]: 654 ± 58 ng/mL
Unstimulated Basal GH release [3, 7]: 713 ± 71 ng/mL

DcyclohexylAla-Ala-Trp-DPhe-NH2 [5-DcyclohexylAla-Ala-Trp-DPhe-NH2]
Unstimulated Basal GH release [3, 6]: 181 ± 28 ng/mL
Unstimulated Basal GH release [3, 12]: 237 ± 18 ng/mL
Unstimulated Basal GH release [3, 7]: 354 ± 81 ng/mL
Unstimulated Basal GH release [3, 8]: 771 ± 76 ng/mL

K[dH][dW]F-NH2 [8-Lys-DHis-DTrp-Phe-NH2]
Unstimulated Basal GH release [3, 10]: 121 ± 24 ng/mL

αAbu-DTrp-DTrp-Orn-NH2 [4-αAbu-DTrp-DTrp-Orn-NH2]
Unstimulated Basal GH release [3, 9]: 85 ± 25 ng/mL
Unstimulated Basal GH release [3, 10]: 88 ± 18 ng/mL
Unstimulated Basal GH release [3, 13]: 50 ± 6 ng/mL

inip-Trp-Trp-Phe-NH2 [10-inip-Trp-Trp-Phe-NH2]
Unstimulated Basal GH release [3, 10]: 69 ± 3 ng/mL
Unstimulated Basal GH release [3, 13]: 81 ± 10 ng/mL

Y[dA]F[Aib]-NH2 [1-Tyr-DAla-Phe-Aib-NH2]
Stimulated GH release (P + S) ([3]; Non-Pentobarbital Rats, peptide 30 μg i.v. + stimulator 10 μg): 23 ± 5 ng/mL
Unstimulated GH release (−S) ([3]; Non-Pentobarbital Rats, peptide alone 30 μg i.v.): 18 ± 1 ng/mL

CSCC[C@H](NC(=O)CN)C(=O)N[C@@H](C)C(=O)N[C@H](C)C(=O)N[C@H](Cc1ccc2ccccc2c1)C(=O)N[C@H](CCCCN)C(=O)N[C@@H](Cc1c[nH]c2ccccc12)C(=O)N[C@H](Cc1ccccc1)C(=O)N[C@@H](CCCCN)C(N)=O [#6a, GlyMetAlaDAlaDβNalDLysTrpDPheLysNH2] (HELM PEPTIDE1{G.M.A.[dA].[O=C([C@@H](Cc1ccc2ccccc2c1)N[*:1])[*:2]].[dK].W.[dF].K.[am]}$$$$V2.0; N-terminus assumed)
pIC50 [5]: 6.15
pKi [5]: 6.40
% INH, Ghrelin/GHS Antagonist Receptor Activity [5]: 89%

DAla-DcyclohexylAla-Ala-Phe-DPhe-Nle-NH2
Unstimulated Basal GH release [3, 11]: 435 ± 152 ng/mL
Unstimulated Basal GH release [3, 6]: 195 ± 34 ng/mL
Unstimulated Basal GH release [3, 12]: 250 ± 41 ng/mL
Unstimulated Basal GH release [3, 7]: 393 ± 51 ng/mL
Unstimulated Basal GH release [3, 8]: 697 ± 75 ng/mL

CSCC[C@H](NC(=O)CN)C(=O)N[C@@H](C)C(=O)N[C@H](C)C(=O)N[C@H](Cc1ccc2ccccc2c1)C(=O)N[C@@H](C)C(=O)N[C@@H](Cc1c[nH]c2ccccc12)C(=O)N[C@H](Cc1ccccc1)C(=O)N[C@@H](CCCCN)C(N)=O [#5, GlyMetAlaDAlaDβNalAlaTrpDPheLysNH2] (HELM PEPTIDE1{G.M.A.[dA].[O=C([C@@H](Cc1ccc2ccccc2c1)N[*:1])[*:2]].A.W.[dF].K.[am]}$$$$V2.0; N-terminus assumed)
pIC50 [5]: 6.53
pKi [5]: 6.78
% INH, Ghrelin/GHS Antagonist Receptor Activity [5]: 94%
